Experiments:
HRI = biological target: T1, HRI (Homo sapiens, UniProt Q9BQI3); assay: HRI phosphorylation in human Huh-7 hepatic cells (Western-blot, ratio phosphorylated/total HRI); format: cell-based; details: Huh-7 cells, 24 h, 10 μM; for ratio phosphorylated/total HRI: vs vehicle (DMSO) control, FIG. 1, FIG. 2
T1 construct: endogenous in cells; host or cells: Huh-7 human hepatic cells
Description: Data are presented as the mean±SD (n=4). *p<0.05 vs. control (CT) cells. ^#p<0.05 vs. BTdCPU-treated cells. BTdCPU=1-(benzo[d][1,2,3]thiadiazol-6-yl)-3-(3,4-dichlorophenyl)urea (compound (2) in Chen T. et al., ibid.).
Data are presented as the mean±SD (n=4). ***p<0.001 and *p<0.05 vs. control (CT) cells. ^#p<0.05 vs. BTdCPU-treated cells. Compound I-2 (1-(4-chloro-3-(trifluoromethyl)phenyl)-3-(4-chloro-3-(trifluoromethyl)phenyl)urea is not part of the present invention, but it has been introduced in some figures for comparative purposes.
HRI is activated by autophosphorylation and this has been used for evaluating its activation. In fact, the hyperphosphorylation of HRI is accompanied by an increase of its eIF2α kinase activity (cf. Lu L. et al., “Translation initiation control by heme-regulated eukaryotic initiation factor 2a kinase in erythroid cells under cytoplasmic stresses”, Mol. Cell. Biol., 2001, vol. 21, pp. 7971-7980). Therefore, HRI protein constitutively exists as the native nonphosphorylated 76-kDa species and/or the autoactivated/autophosphorylated 92-kDa, although the relative abundance of each HRI species tends to vary depending on the cells examined (cf. Acharya P. et al., “Hepatic heme-regulated inhibitor (HRI) eukaryotic initiation factor 2a kinase: A protagonist of heme-mediated translational control of CYP2B enzymes and a modulator of basal endoplasmic reticulum stress tone”, Mol. Pharmacol, 2010, vol. 77, pp. 575-592). […] Thus Huh-7 cells were incubated for 24 h with vehicle (DMSO, CT cells) or 10 μM of each of the assayed compound. The effects of these compounds were compared to the well-known HRI activator BTdCPU.

eIF2α = eIF2α phosphorylation in human Huh-7 hepatic cells (Western-blot); format: cell-based; details: Huh-7 cells, 24 h, 10 μM, compared to BTdCPU; FIG. 3, FIG. 4
Description: Data are presented as the mean±SD (n=4). **p<0.01 and *p<0.05 vs. control (CT) cells. ^##p<0.01 and ^#p<0.05 vs. BTdCPU-treated cells.
Data are presented as the mean±SD (n=4). *p<0.05 vs. control (CT) cells.
HRI is a kinase that phosphorylates eukaryotic Initiation Factor 2α (eIF-2a) at its Ser 51 residue to execute protein synthesis regulation and thereby HRI activators cause the phosphorylation of eIF2α as previously described (Chen T, et al., ibid). To confirm whether the new synthesized compounds were able to activate the HRI eIF2α kinase inventors examined the eIF2α phosphorylation caused by these compounds compared to the well-known HRI eIF2α kinase activator BTdCPU. Human Huh-7 hepatocytes were incubated for 24 h with vehicle (DMSO, CT cells) or 10 μM of each of the assayed compounds. eIF2α phosphorylation was determined by Western-blot.

FGF21 = FGF21 expression in hepatocytes (quantitative real-time RT-PCR); format: cell-based, human; details: Huh-7 hepatocytes, 24 h, 10 μM; FIG. 9
Experimental: Human Huh-7 hepatocytes were incubated for 24 h in the absence (Control, CT) or in the presence of compounds (10 μM). Assessment by quantitative real-time RT-PCR of FGF21. Data are presented as the mean±SD (n=4 per group). ***p<0.001 and **p<0.01 vs CT. ^###p<0.001, ^##p<0.01 and ^#p<0.05 vs BTCtFPU. ^††p<0.01 and ^†p<0.05 vs BTdCPU. BTCtFPU=1-(benzo[d][1,2,3]thiadiazol-6-yl)-3-(4-chloro-3-(trifluoromethyl)phenyl)urea (compound (3) in Chen T. et al., ibid.).

T1 sequence (Q9BQI3 whole entry): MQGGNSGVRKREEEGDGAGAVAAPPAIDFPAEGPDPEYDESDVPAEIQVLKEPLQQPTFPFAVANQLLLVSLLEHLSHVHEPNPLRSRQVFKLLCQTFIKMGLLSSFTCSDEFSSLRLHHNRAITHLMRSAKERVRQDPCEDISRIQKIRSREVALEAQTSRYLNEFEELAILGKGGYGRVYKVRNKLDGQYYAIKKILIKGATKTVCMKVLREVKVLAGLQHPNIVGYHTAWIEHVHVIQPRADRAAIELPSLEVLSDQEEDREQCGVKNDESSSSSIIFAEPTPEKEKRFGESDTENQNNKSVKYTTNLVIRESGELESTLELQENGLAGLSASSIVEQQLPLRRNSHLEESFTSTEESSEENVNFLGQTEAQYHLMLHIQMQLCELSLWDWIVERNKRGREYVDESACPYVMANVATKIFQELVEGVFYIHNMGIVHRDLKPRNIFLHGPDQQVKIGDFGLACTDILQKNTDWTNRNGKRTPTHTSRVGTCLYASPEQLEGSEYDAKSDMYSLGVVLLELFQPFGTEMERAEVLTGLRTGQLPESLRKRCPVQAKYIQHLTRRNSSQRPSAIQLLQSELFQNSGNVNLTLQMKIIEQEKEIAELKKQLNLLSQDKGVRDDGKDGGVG

| Compound | melting point [°C] | ratio phosphorylated/total HRI (HRI) | eIF2α phosphorylation (eIF2α) | FGF21 expression compared with BTdCPU (FGF21) | FGF21 expression compared with BTCtFPU (FGF21) | total HRI (HRI; FIG. 2) |
| --- | --- | --- | --- | --- | --- | --- |
| O=C(Nc1ccc(S(F)(F)(F)(F)F)cc1)Nc1ccc2nnsc2c1 [compound I-25, 1-(Benzo[d][1,2,3]thiadiazol-6-yl)-3-(4-(pentafluoro-λ^6-sulfanyl)phenyl)urea] | 274 to 275 | increased the ratio phosphorylated/total HRI |  |  |  |  |
| O=C(Nc1ccc(Cl)c(S(F)(F)(F)(F)F)c1)Nc1ccc2nnsc2c1 [compound I-29, 1-(Benzo[d][1,2,3]thiadiazol-6-yl)-3-(4-chloro-3-(pentafluoro-λ^6-sulfanyl)phenyl)urea] | 213 to 214 | increased the ratio phosphorylated/total HRI | marked increase in eIF2α phosphorylation, higher than the observed with BTdCPU | higher increase in FGF21 expression than that observed for compound BTdCPU |  |  |
| O=C(Nc1cc(S(F)(F)(F)(F)F)ccc1Cl)Nc1cc(S(F)(F)(F)(F)F)ccc1Cl [compound I-32, 1,3-Bis(2-chloro-5-(pentafluoro-λ^6-sulfanyl)phenyl)urea] | 227 to 228 |  |  |  |  |  |
| O=C(Nc1ccc2nnsc2c1)Nc1cccc(S(F)(F)(F)(F)F)c1Cl [compound I-28, 1-(Benzo[d][1,2,3]thiadiazol-6-yl)-3-(2-chloro-3-(pentafluoro-λ^6-sulfanyl)phenyl)urea] | 225 | increased the ratio phosphorylated/total HRI | marked increase in eIF2α phosphorylation, higher than the observed with BTdCPU |  |  |  |
| O=C(Nc1ccc2nnsc2c1)Nc1cc(S(F)(F)(F)(F)F)ccc1Cl [compound I-27, 1-(Benzo[d][1,2,3]thiadiazol-6-yl)-3-(2-chloro-5-(pentafluoro-λ^6-sulfanyl)phenyl)urea] | 227 | increased the ratio phosphorylated/total HRI | marked increase in eIF2α phosphorylation, higher than the observed with BTdCPU |  |  |  |
| O=C(Nc1ccc(S(F)(F)(F)(F)F)cc1)Nc1cccc(S(F)(F)(F)(F)F)c1 [compound I-37, 1-(3-(Pentafluoro-λ^6-sulfanyl)phenyl)-3-(4-(pentafluoro-λ^6-sulfanyl)phenyl)urea] | 216 to 217 |  |  | significant higher increase in FGF21 expression than compound BTdCPU | significant higher increase than compound BTCtFPU |  |
| O=C(Nc1ccc(Cl)c(C(F)(F)F)c1)Nc1cc(S(F)(F)(F)(F)F)ccc1Cl [compound I-33, 1-(4-Chloro-3-(trifluoromethyl)phenyl)-3-(2-chloro-5-(pentafluoro-λ^6-sulfanyl)phenyl)urea] | 156 to 157 | increase caused by I-33 was also statistically significant | enhanced eIF2α phosphorylation to values similar to those achieved by BTdCPU exposure |  |  | reduction in total HRI |
| O=C(Nc1cccc(S(F)(F)(F)(F)F)c1)Nc1cccc(S(F)(F)(F)(F)F)c1 [compound I-36, 1,3-Bis(3-(pentafluoro-λ^6-sulfanyl)phenyl)urea] |  |  |  | significant higher increase in FGF21 expression than compound BTdCPU | significant higher increase than compound BTCtFPU |  |
| O=C(Nc1ccc(Cl)c(S(F)(F)(F)(F)F)c1)Nc1ccc(Cl)c(S(F)(F)(F)(F)F)c1 [compound I-38, 1,3-Bis(4-chloro-3-(pentafluoro-λ^6-sulfanyl)phenyl)urea] | 237 to 238 |  |  | significant higher increase in FGF21 expression than compound BTdCPU | significant higher increase than compound BTCtFPU |  |
